Patent publication US10111435B2, “Herbicidal compositions containing N-(1,3,4-oxadiazol-2-yl)-aryl carboxylic acid amides” (BAYER CROPSCIENCE AKTIENGESELLSCHAFT, priority 2013, dated 2018)

Key:
Type in all cases: in vivo
[1] = tested on: Bromus sterilis (BROST); test: greenhouse post-emergence herbicidal efficacy against BROST
Procedure: (§1) All trials whose results are shown were conducted in a greenhouse by the methodology specified below. The effect of the inventive herbicidal compositions was examined on the following harmful plants 14 and 21 days after application:
(§2) Echinochloa crus-galli (ECHCG), Eleusine indica (ELEIN), Setaria viridis (SETVI), Amaranthus retroflexus (AMARE), Chenopodium album (CHEAL), Kochia scoparia (KCHSC), Solanum nigrum (SOLNI), Avena fatua (AVEFA), Bromus sterilis (BROST), Lolium multiflorum (LOLMU), Phalaris minor (PHAMI), Poa annua (POAAN), Galium aparine (GALAP), Matricaria inodora (MATIN) and Polygonum convolvulus (POLCO).
(§3) The harmful plant seeds were sown in pots (diameter 8 cm) with sandy loam soil and germinated under optimal conditions. The inventive herbicidal compositions or the active ingredients alone were applied post-emergence to the planted pots with a spray volume of 300 L/ha. The trial was conducted in a greenhouse under optimum growth conditions. The herbicidal effects were assessed visually by comparison of untreated and treated plants. The percentages mean: 0%=no effects, 100%=the plants die off completely).
(§4) The abbreviations mean: • a.i.=active ingredient • E^C=expected value according to Colby (E^C=A+B−A×B/100) • Diff: =difference (%) of measured value from expected value (%) (measured value minus expected value)
(§5) Assessment: • measured value E is greater than E^C:->synergism (+ diff.) • measured value E equals E^C:->additive effect • measured value E is smaller than E^C:->antagonism(− diff.)

[2] = tested on: Polygonum convolvulus (POLCO); test: greenhouse post-emergence herbicidal efficacy against POLCO
Procedure: as §1, §2, §3, §4, §5

[3] = tested on: Galium aparine (GALAP); test: greenhouse post-emergence herbicidal efficacy against GALAP
Procedure: as §1, §2, §3, §4, §5

[4] = tested on: Lolium multiflorum (LOLMU); test: greenhouse post-emergence herbicidal efficacy against LOLMU
Procedure: as §1, §2, §3, §4, §5

[5] = tested on: Avena fatua (AVEFA); test: greenhouse post-emergence herbicidal efficacy against AVEFA
Procedure: as §1, §2, §3, §4, §5

[6] = tested on: Matricaria inodora (MATIN); test: greenhouse post-emergence herbicidal efficacy against MATIN
Procedure: as §1, §2, §3, §4, §5

[7] = tested on: Phalaris minor (PHAMI); test: greenhouse post-emergence herbicidal efficacy against PHAMI
Procedure: as §1, §2, §3, §4, §5

[8] = tested on: Poa annua (POAAN); test: greenhouse post-emergence herbicidal efficacy against POAAN
Procedure: as §1, §2, §3, §4, §5

[9] = 14 days after application, g of a.i./ha: A1-57 12.5, aclonifen 200
[10] = 14 days after application, g of a.i./ha: A1-57 12.5, aclonifen 800
[11] = 14 days after application, g of a.i./ha: A1-57 50, aclonifen 800
[12] = 21 days after application, g of a.i./ha: A1-57 12.5, aclonifen 800
[13] = 21 days after application, g of a.i./ha: A1-57 50, aclonifen 800
[14] = 21 days after application, g of a.i./ha: A1-57 12.5, aclonifen 200
[15] = 14 days after application, g of a.i./ha: A1-57 50, aclonifen 200
[16] = 14 days after application, 80 g of a.i./ha
[17] = 21 days after application, g of a.i./ha: A2-1 50, fluroxypyr 80
[18] = 14 days after application, 20 g of a.i./ha
[19] = 21 days after application, g of a.i./ha: A2-1 12.5, fluroxypyr 20
[20] = 21 days after application, g of a.i./ha: A2-1 50, fluroxypyr 20
[21] = 21 days after application, g of a.i./ha: A2-1 12.5, fluroxypyr 80
[22] = 14 days after application, 320 g of a.i./ha
[23] = 21 days after application, g of a.i./ha: A1-36 2.5, flurtamone 80
[24] = 21 days after application, g of a.i./ha: A1-36 2.5, flurtamone 320
[25] = 21 days after application, g of a.i./ha: A1-36 10, flurtamone 80
[26] = 21 days after application, g of a.i./ha: A1-36 10, flurtamone 320

Measured: Efficacy

Nc1c([N+](=O)[O-])ccc(Oc2ccccc2)c1Cl [aclonifen]
40%: [7]; [10]
0%: [1]; [9] | [1]; [10] | [1]; [11] | [1]; [12] | [1]; [13] | [2]; [9] | [2]; [14] | [4]; [10] | [4]; [11] | [5]; 14 days after application, 200 g of a.i./ha | [5]; 14 days after application, 800 g of a.i./ha | [5]; [9] | [5]; [12] | [6]; [9] | [6]; [10] | [6]; [11] | [6]; [13] | [7]; [9] | [7]; [15] | [7]; [14] | [8]; [9] | [8]; [15] | [8]; 21 days after application, g of a.i./ha: A1-57 50, aclonifen 200
15%: [7]; [12]
20%: [3]; [9] | [3]; [15] | [3]; [13]
30%: [8]; [10] | [8]; [11]
10%: [2]; [10] | [8]; [12] | [8]; [13]

Nc1c(Cl)c(F)nc(OCC(=O)O)c1Cl [fluroxypyr]
80%: [2]; [19] | [2]; [20]
10%: [8]; [21]
50%: [6]; [21] | [6]; [17]
0%: [1]; [16] | [1]; [17] | [4]; [16] | [4]; [17] | [5]; [16] | [5]; [21] | [5]; [17] | [7]; [21] | [7]; [17] | [8]; [18] | [8]; [19]
70%: [2]; [18]
20%: [6]; [19] | [6]; [20]
15%: [7]; [16]

CNC1=C(c2cccc(C(F)(F)F)c2)C(=O)C(c2ccccc2)O1 (centres unmarked) [flurtamone]
80%: [3]; [22]
25%: [6]; [23] | [6]; [25]
30%: [2]; [22] | [2]; [26] | [4]; [16] | [6]; [24] | [6]; [26]
0%: [1]; [16] | [1]; [23] | [2]; [25] | [3]; [23] | [3]; [25] | [5]; [16] | [5]; [23] | [5]; [24] | [5]; [25] | [5]; [26]
10%: [1]; [22] | [1]; [24]
50%: [2]; [16] | [6]; [16] | [6]; [22] | [7]; [22]
70%: [3]; [26]
40%: [3]; [16] | [7]; [16] | [7]; [25]
20%: [4]; [25]
15%: [5]; [22]
